The experiment deals with T1, Recombinant full length human OGA enzyme (Homo sapiens, UniProt O60502).
T1 construct: Recombinant full length human OGA enzyme was purchased from Origene; purchased Origene
T1 sequence (O60502 1-916): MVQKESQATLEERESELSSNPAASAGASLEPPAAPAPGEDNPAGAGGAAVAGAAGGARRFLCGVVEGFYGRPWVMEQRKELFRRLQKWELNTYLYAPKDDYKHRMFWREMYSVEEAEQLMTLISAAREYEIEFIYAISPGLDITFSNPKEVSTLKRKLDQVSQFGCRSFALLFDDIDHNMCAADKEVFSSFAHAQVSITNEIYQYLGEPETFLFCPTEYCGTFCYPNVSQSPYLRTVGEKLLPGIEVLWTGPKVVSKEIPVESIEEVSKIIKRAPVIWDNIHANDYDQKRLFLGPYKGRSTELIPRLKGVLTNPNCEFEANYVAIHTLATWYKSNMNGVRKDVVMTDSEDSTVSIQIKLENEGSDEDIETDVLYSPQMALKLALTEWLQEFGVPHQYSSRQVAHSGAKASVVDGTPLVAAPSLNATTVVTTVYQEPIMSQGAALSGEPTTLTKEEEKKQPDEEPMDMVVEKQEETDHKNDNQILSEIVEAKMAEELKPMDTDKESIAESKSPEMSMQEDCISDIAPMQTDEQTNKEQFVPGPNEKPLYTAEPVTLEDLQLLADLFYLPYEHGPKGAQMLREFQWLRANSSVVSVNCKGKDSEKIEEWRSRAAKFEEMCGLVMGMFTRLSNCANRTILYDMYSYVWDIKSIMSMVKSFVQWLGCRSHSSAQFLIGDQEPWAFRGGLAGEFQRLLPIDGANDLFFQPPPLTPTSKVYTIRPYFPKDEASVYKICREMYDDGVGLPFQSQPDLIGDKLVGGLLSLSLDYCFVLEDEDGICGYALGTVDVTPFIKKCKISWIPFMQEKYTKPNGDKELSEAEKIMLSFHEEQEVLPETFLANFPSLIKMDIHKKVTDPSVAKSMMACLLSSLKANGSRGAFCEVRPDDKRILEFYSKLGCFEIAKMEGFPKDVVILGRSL
The experiment can be described thus: OGA Enzyme Inhibition Biochemical Assay. As to conditions: 1 nM OGA, 100 μM 4-MUGlcNAc (Km), pH 6.4, 90 minutes at room temperature; 10-point dose-response starting from 20 μM. The procedure:
OGA Enzyme Inhibition Biochemical Assay
Recombinant full length human OGA enzyme was purchased from Origene. 4-MUGlCNAc substrate was purchased from Sigma. All other reagents were purchased from Sigma or Fisher. Assay buffer consists of the McIlvaine buffer system, pH 6.4 (0.2M Na2HPO4 mixed with 0.1M citric acid) and 0.01% BSA. Reactions consist of 1 nM OGA, 100 μM 4-MUGlcNAc (Km), and compound in a final volume of 10 μl. Reactions were incubated for 90 minutes at room temperature and quenched with 40 μl of 3M glycine, pH 10 and read on a Perkin Elmer Envision plate reader (Ex: 355 nm/Em: 460 nm). Compounds were tested with a 10-point dose-response starting from 20 μM with a 4-fold dilution. Data was fit using GraphPad Prism using a 4-paramter fit with variable slope.
Consider `CC(=O)Nc1ncc(CN2C[C@@H](Cc3ncc(F)cn3)O[C@@H](C)C2)s1` (racemic) [Example 1-34, N-(5-(((cis)-2-((5-fluoropyrimidin-2-yl)methyl)-6-methylmorpholino)methyl)thiazol-2-yl)acetamide], for which the IC50 was found to be 680 nM. Turning to `CC(=O)Nc1ncc(CN2CCCOC(Cc3cc(C)nc(C)c3)C2)s1` (racemic) [Example 1-36, N-(5-((2-((2,6-dimethylpyridin-4-yl)methyl)-1,4-oxazepan-4-yl)methyl)thiazol-2-yl)acetamide], the IC50 was determined as 57 nM.

For `CC(=O)Nc1ncc(CN2CCCOC(Cc3ncc(F)cn3)C2)s1` (racemic) [Example 1-38, N-(5-((2-((5-fluoropyrimidin-2-yl)methyl)-1,4-oxazepan-4-yl)methyl)thiazol-2-yl)acetamide], the IC50 stood at 45 nM. For `COc1cc(CC2CN(Cc3cnc(NC(C)=O)s3)CCCO2)ccn1` (racemic) [Example 1-40, N-(5-((2-((2-methoxypyridin-4-yl)methyl)-1,4-oxazepan-4-yl)methyl)thiazol-2-yl)acetamide] the value was 99 nM; for `CC(=O)Nc1ncc(CN2CCOCC(Cc3cc(C)nc(C)c3)C2)s1` (racemic) [Example 1-42, N-(5-((6-((2,6-dimethylpyridin-4-yl)methyl)-1,4-oxazepan-4-yl)methyl)thiazol-2-yl)acetamide], 19 nM; for `CC(=O)Nc1ncc(CN2CCOCC(Cc3ncc(F)cn3)C2)s1` (racemic) [Example 1-44, N-(5-((6-((5-fluoropyrimidin-2-yl)methyl)-1,4-oxazepan-4-yl)methyl)thiazol-2-yl)acetamide], 32 nM. As for `COc1cc(CC2COCCN(Cc3cnc(NC(C)=O)s3)C2)ccn1` (racemic) [Example 1-46, N-(5-((6-((2-methoxypyridin-4-yl)methyl)-1,4-oxazepan-4-yl)methyl)thiazol-2-yl)acetamide], the IC50 is 42 nM. Under `CC(=O)Nc1ncc(C(C)N2CCO[C@H](Cc3ncc(F)cn3)C2)s1` (single isomer, unassigned) [Example 1-23 Peak 1] stands 19 nM; under `CC(=O)Nc1ncc(C(C)N2CCO[C@H](Cc3ncc(F)cn3)C2)s1` (single isomer, unassigned) [Example 1-23 Peak 2], 360 nM; under `CC(=O)Nc1ncc(CN2CCOC(C(C)c3ncc(F)cn3)C2)s1` (single isomer, unassigned) [Example 1-25 Peak 1], 5.3 nM. Take `CC(=O)Nc1ncc(CN2CCOC(C(C)c3ncc(F)cn3)C2)s1` (single isomer, unassigned) [Example 1-25 Peak 2]: the IC50 amounted to 73 nM. Take `CC(=O)Nc1ncc(CN2CCOC(C(C)c3ncc(F)cn3)C2)s1` (single isomer, unassigned) [Example 1-25 Peak 3]: the IC50 is 160 nM. Take `CC(=O)Nc1ncc(CN2CCOC(C(C)c3ncc(F)cn3)C2)s1` (single isomer, unassigned) [Example 1-25 Peak 4]: the IC50 was 1300 nM. For `CC(=O)Nc1ncc(CN2CC(C)OC(Cc3ncc(F)cn3)C2)s1` (single isomer, unassigned) [Example 1-35 Peak 1] the value was 560 nM; for `CC(=O)Nc1ncc(CN2CCCOC(Cc3cc(C)nc(C)c3)C2)s1` (single isomer, unassigned) [Example 1-37 Peak 1], 31 nM. As for `CC(=O)Nc1ncc(CN2CCCOC(Cc3cc(C)nc(C)c3)C2)s1` (single isomer, unassigned) [Example 1-37 Peak 2], the IC50 stood at 110 nM.

`CC(=O)Nc1ncc(CN2CCCOC(Cc3ncc(F)cn3)C2)s1` (single isomer, unassigned) [Example 1-39 Peak 1]: the IC50 amounted to 20 nM. Take `CC(=O)Nc1ncc(CN2CCCOC(Cc3ncc(F)cn3)C2)s1` (single isomer, unassigned) [Example 1-39 Peak 2]: the IC50 turned out to be 760 nM. In the case of `COc1cc(CC2CN(Cc3cnc(NC(C)=O)s3)CCCO2)ccn1` (single isomer, unassigned) [Example 1-41 Peak 1], the IC50 came to 39 nM. For `COc1cc(CC2CN(Cc3cnc(NC(C)=O)s3)CCCO2)ccn1` (single isomer, unassigned) [Example 1-41 Peak 2] the value was 270 nM; for `CC(=O)Nc1ncc(CN2CCOCC(Cc3cc(C)nc(C)c3)C2)s1` (single isomer, unassigned) [Example 1-43 Peak 1], 19 nM; for `CC(=O)Nc1ncc(CN2CCOCC(Cc3cc(C)nc(C)c3)C2)s1` (single isomer, unassigned) [Example 1-43 Peak 2], 38 nM. Under `CC(=O)Nc1ncc(CN2CCOCC(Cc3ncc(F)cn3)C2)s1` (single isomer, unassigned) [Example 1-45 Peak 1] stands 1600 nM. On to `CC(=O)Nc1ncc(CN2CCOCC(Cc3ncc(F)cn3)C2)s1` (single isomer, unassigned) [Example 1-45 Peak 2], for which the IC50 is 14 nM. `COc1cc(CC2COCCN(Cc3cnc(NC(C)=O)s3)C2)ccn1` (single isomer, unassigned) [Example 1-47 Peak 1]: the IC50 was 1000 nM. Consider `COc1cc(CC2COCCN(Cc3cnc(NC(C)=O)s3)C2)ccn1` (single isomer, unassigned) [Example 1-47 Peak 2], for which the IC50 stood at 17 nM.

In the case of `CC(=O)Nc1ncc(CN2CCNC(Cc3ncc(F)cn3)C2)s1` (single isomer, unassigned) [Example 2-20 Peak 1], the IC50 is 560 nM. Under `CC(=O)Nc1ncc(CN2CCNC(Cc3ncc(F)cn3)C2)s1` (single isomer, unassigned) [Example 2-20 Peak 2] stands greater than 20000 nM; under `COc1cc(CC2CN(Cc3cnc(NC(C)=O)s3)CCN2)ccn1` (single isomer, unassigned) [Example 2-22 Peak 1], 18000 nM; under `COc1cc(CC2CN(Cc3cnc(NC(C)=O)s3)CCN2)ccn1` (single isomer, unassigned) [Example 2-22 Peak 2], 850 nM. In the case of `COc1cc(CC2CN(Cc3cnc(NC(C)=O)s3)CCN2)ccc1F` (single isomer, unassigned) [Example 4-6 Peak 1], the half-maximal inhibitory concentration (IC50) came out at 11000 nM. `COc1cc(CC2CN(Cc3cnc(NC(C)=O)s3)CCN2)ccc1F` (single isomer, unassigned) [Example 4-6 Peak 2]: the IC50 was 4100 nM. With `CC(=O)Nc1ncc(CN2CCNC(Cc3ccnc(C)c3)C2)s1` (single isomer, unassigned) [Example 4-8 Peak 1], the IC50 is 6700 nM.

As for `CC(=O)Nc1ncc(CN2CCNC(Cc3ccnc(C)c3)C2)s1` (single isomer, unassigned) [Example 4-8 Peak 2], the IC50 worked out at 490 nM.

Consider `COc1cc(CC2CN(Cc3cnc(NC(C)=O)s3)CCN2C)ccn1` (single isomer, unassigned) [Example 4-12 Peak 1], for which the IC50 was determined as 950 nM. Under `COc1cc(CC2CN(Cc3cnc(NC(C)=O)s3)CCN2C)ccn1` (single isomer, unassigned) [Example 4-12 Peak 2] stands greater than 20000 nM; under `CC(=O)Nc1ncc(CN2CCNC(Cc3ccc(C)nc3)C2)s1` (single isomer, unassigned) [Example 4-14 Peak 1], greater than 20000 nM; under `CC(=O)Nc1ncc(CN2CCNC(Cc3ccc(C)nc3)C2)s1` (single isomer, unassigned) [Example 4-14 Peak 2], 4400 nM.

Take `COc1nccc(CC2CN(Cc3cnc(NC(C)=O)s3)CCN2)c1F` (single isomer, unassigned) [Example 4-18 Peak 1]: the IC50 worked out at 14000 nM.

For `COc1nccc(CC2CN(Cc3cnc(NC(C)=O)s3)CCN2)c1F` (single isomer, unassigned) [Example 4-18 Peak 2], the IC50 worked out at 1500 nM.

As for `CC(=O)Nc1ncc(CN2CCO[C@H](Cc3ncc(F)cn3)C2)s1` [Example 1-1, (R)—N-(5-((2-((5-fluoropyrimidin-2-yl)methyl)morpholino)methyl)thiazol-2-yl)acetamide], the half-maximal inhibitory concentration (IC50) amounted to 16 nM. For `CC(=O)Nc1ncc(CN2CCO[C@@H](Cc3ncc(F)cn3)C2)s1` [Example 1-2, (S)—N-(5-((2-((5-fluoropyrimidin-2-yl)methyl)morpholino)methyl)thiazol-2-yl)acetamide] the value was 4400 nM.

In general, IC50 refers to the concentration that gives 50% inhibition.

These data come from US12319679B2, “Morpholinyl, piperazinyl, oxazepanyl and diazepanyl O-glycoprotein-2-acetamido-2-deoxy-3-d-glucopyranosidase inhibitors” (BIOGEN MA INC., priority 2018, dated 2025).
